Reference: the METLIN SMRT retention time set (Domingo-Almenara et al. 2019)

Assay: gradient 5% acetonitrile 3 min, to 50% in 2 min, to 85% in 15 min, held 3 min, 100 µL/min
Conditions: column: Zorbax Extend-C18 2.1 x 50 mm; eluents: water / acetonitrile, 0.1% formic acid
How it was run: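 Over 3 months, pure standards in mixtures of ~100 molecules were run by HPLC coupled to a quadrupole time-of-flight mass spectrometer in positive and negative ionization mode. The column was a Zorbax Extend-C18 (2.1 × 50 mm, 1.8 μm) at 100 μL/min, eluted with water and acetonitrile each holding 0.1% formic acid, with 40 μL dead and 900 μL dwell volumes. Retention time was determined from adduct peaks chosen by software and checked manually.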

Point of comparison: Cc1nc(C)c(C(=O)NCC2CCCCC(=O)N2)s1 (stereo unspecified), RP-LC retention time 595 s. Against it:
- Cc1ccc(-c2nc(-c3ccc(S(=O)(=O)N4CCC(C(=O)N5CCCC5)CC4)cc3)no2)cc1F — higher, 1110 s
- O=C(NCC1CN(CC2CC2)CC12CCCCC2)Nc1ccc(F)cc1 (stereo unspecified) — higher, 687 s
- COCC(C)NC(=O)CN1c2ccc(F)cc2-c2ccccc2S1(=O)=O (stereo unspecified) — higher, 785 s
- O=C(c1cc2c(s1)CCCC2)N1CCc2[nH]cnc2C12CCCCC2 — higher, 692 s
- Cc1ccccc1OCC(=O)Nc1ccc2c(c1)Sc1ncccc1C(=O)N2C(C)C — higher, 972 s
- Cn1cc(S(=O)(=O)N2CCOCC2)cc1C(=O)N1CCN(c2ccc(F)cc2)CC1 — higher, 806 s
- O=C(Cc1cn2cc(F)ccc2n1)Nc1ccc(Cl)cc1Cl — higher, 666 s
- COCCCNC(=O)c1ccc(-c2nc3cccnc3n(C3CCCC3)c2=O)cc1 — higher, 867 s
- C=Cc1ccc(Cn2cc(S(=O)(=O)N3CCCCC3)ccc2=O)cc1 — higher, 968 s
- CCOC(=O)c1nc(N2CCN(C3CCCCC3)CC2)c2ccccc2n1 — higher, 614 s
- N#Cc1ccccc1NC(=O)C(=O)NCC1CCN(C(=O)c2ccccc2F)CC1 — higher, 744 s
- O=C(Nc1ccc(F)cc1F)Nc1nccn(-c2ccc(F)cc2)c1=O — higher, 942 s
- COC(=O)c1ncn2c1C(=O)N(c1cccc(C)c1C)C(C)(C(=O)NC1CCCC1)C2 (stereo unspecified) — higher, 734 s
- CC(=O)N1CCc2cc(N3CC(C(=O)Nc4ccc(N5CCOCC5)cc4)CC3=O)ccc21 (stereo unspecified) — higher, 629 s
- COc1ccc(C2CC(=O)N(c3ccc(C)c(F)c3)C(=O)C2)cc1 — higher, 954 s
- COc1cccc(-c2nnc(Cc3nc(-c4ccncc4)no3)o2)c1 — higher, 739 s
- Cn1nnc2cc(-c3noc(COc4ccc(Cl)cc4)n3)ccc21 — higher, 994 s
- CCN1CCN(CCCNC(=O)C2CCCN(C(=O)c3[nH]c(C)c(C(=O)OC(C)C)c3C)C2)CC1 (stereo unspecified) — lower, 579 s
- O=c1ccc(-c2ccccc2F)nn1Cc1nc(-c2ccccc2Cl)no1 — higher, 1020 s
- COc1ccc(OCc2noc(CNC(=O)Cc3c[nH]c4ccccc34)n2)cc1 — higher, 681 s
- CC(N)c1cccc(Cl)c1Cl (stereo unspecified) — higher, 636 s
- Cc1csc(-c2cc(S(=O)(=O)Nc3cc(F)ccc3Cl)cn2CC(=O)N2CCCC2)n1 — higher, 957 s
- CN1CCN(C(=O)C2CCN(S(=O)(=O)c3cc4c(cc3Cl)NC(=O)CO4)CC2)CC1 — lower, 580 s
- Cc1cc(C)c(NC(=O)Cn2ncc3c(N4CCN(c5ccccn5)CC4)ncnc32)c(C)c1 — higher, 620 s
- COc1ccc(NC(=O)C2CCN(c3nccnc3Sc3ccccc3)CC2)cc1Cl — higher, 1100 s
- COc1cccc(NC(=O)c2cc(C(C)C)n3nccc3n2)c1 — higher, 1070 s
- Cc1csc(-c2csc(S(=O)(=O)N3CCCCCC3)c2)n1 — higher, 1090 s
- O=C(c1cccc(Cl)c1)N1CCN(C(=O)c2nnn3c2COC(c2ccc(F)cc2)C3)CC1 (stereo unspecified) — higher, 913 s
- Cc1ccc(-c2noc(Cn3ncn4nc(-c5ccc(Br)cc5)cc4c3=O)n2)cc1 — higher, 1280 s
- COCCNC(=O)C1CCN(c2cnc(N3CCCCCC3)nc2)CC1 — higher, 617 s
- O=C(Nc1cccc(Cl)c1F)N1CCc2nc[nH]c2C1 — lower, 589 s
- O=C(Cn1cc(Cl)cn1)N1CCCC1c1cccc(F)c1 (stereo unspecified) — higher, 836 s
- Cc1sc(-c2noc(C(C)C)n2)cc1S(=O)(=O)N1CCC(C(=O)NC2CCCCC2)CC1 — higher, 1090 s
- CC(NC(=O)C1CCN(CCc2cn(C)c3ncccc23)CC1)c1ccccc1 (stereo unspecified) — higher, 644 s
- Cc1ccc(NC(=O)Cn2cnc(C)c(C)c2=O)cc1 — higher, 675 s
- Cc1ccn2cc(-c3ccc(NC(=O)c4cccc([N+](=O)[O-])c4)cc3)nc2n1 — higher, 652 s
- c1ccc(CCc2nc3nccc(-c4ccc5c(c4)OCCCO5)n3n2)cc1 — higher, 984 s
- COc1cc(CN2CC(F)(F)C[C@H]2c2nnc(C3CC3)o2)ccc1F — higher, 931 s
- Cc1ccc(Nc2c(-c3ccc(Br)cc3)nc3cnccn23)c(Br)c1 — higher, 1230 s
- CCN1c2ccc(F)cc2C(=O)NC12CCN(C(=O)c1ccc(F)cc1)CC2 — higher, 714 s
- O=C(CN1CCN(Cc2ccc(F)cc2)C1=O)NCc1cc(F)cc(F)c1 — higher, 826 s
- CC(C)c1ccc(NC(=O)C2CCc3nc(N4CCOCC4)ncc3C2)cc1 (stereo unspecified) — higher, 888 s
- O=C(c1cc(S(=O)(=O)N2CCCC(C(=O)N3CCc4ccccc4C3)C2)c[nH]1)N1CCCC1 (stereo unspecified) — higher, 808 s
- Nc1cccc(-c2ccc(N3CCCCC3)nn2)c1 — lower, 570 s
- CCN1CCN(c2cc(C)c3cc(NC(=S)N4CCC(Cc5ccccc5)CC4)ccc3n2)CC1 — higher, 699 s
- CCn1c(=O)c(C(=O)NCc2ccccc2Br)nc2cccnc21 — higher, 871 s
- CC(=O)Nc1nc(-c2ccc3c(c2)NC(=O)CO3)cs1 — higher, 633 s
- Cc1cc(Cl)ccc1NC(=O)c1cc2c(=O)n(CC(C)C)ccc2n1C — higher, 900 s
- COc1ccc(-c2noc(C3(NC(=O)c4cccc(C#N)c4)CCCCC3)n2)cc1 — higher, 1110 s
- Cc1ccc(NS(=O)(=O)c2cc3c4c(c2)CCC(=O)N4CCC3)cc1C — higher, 880 s
- O=C(NCc1ccc(F)c(Cl)c1)C1CCN(c2ccc(SCc3ccccc3)nn2)CC1 — higher, 839 s
- Cc1cccc(NS(=O)(=O)c2cc3n(c2)CCCN(C)C3=O)c1 — higher, 695 s
- COc1ccc(NC(=O)c2ccc3ncsc3c2)c([N+](=O)[O-])c1 — higher, 800 s
- Cc1nn(Cc2ccc(C(=O)NC3CC3)cc2)c(C)c1S(=O)(=O)N1CCCCC1 — higher, 765 s
- Cc1cc2c(=O)n(CC(=O)Nc3ccc(Br)cc3F)ccc2s1 — higher, 869 s
- Cn1c(N2CCCC(C(=O)NCCCN3CCC(Cc4ccccc4)CC3)C2)cc(=O)n(C)c1=O (stereo unspecified) — higher, 630 s
- Cc1ccc(NC(=O)NCCn2c(-c3ccncc3)nc3cccnc32)c(Cl)c1 — higher, 652 s
- COc1ccc(C(O)CN2CCN(c3ccccc3C)CC2)cc1 (stereo unspecified) — higher, 686 s
- CCC1CCCCN1C(=O)c1cnc2nc(C)ccc2c1Nc1ccc(OC)cc1OC (stereo unspecified) — higher, 667 s
- O=C(CCCN1C(=O)c2cccc3cccc(c23)C1=O)N1CCN(c2ccccc2)CC1 — higher, 866 s
- O=C1CN(S(=O)(=O)c2ccc(F)c(Cl)c2)CC2(CCCCC2)N1C1CCCC1 — higher, 1240 s
- Cc1cc(C(=O)NC2CCc3nnc(C)n3CC2)c(C)n1Cc1ccco1 (stereo unspecified) — higher, 643 s
- O=C(CC1CCCC1)NCc1cccnc1-c1ccc(F)cc1 — higher, 674 s
- CC1CCCN(c2nn(CC(=O)Nc3ccc4c(c3)OCCO4)c(=O)c3ccccc23)C1 (stereo unspecified) — higher, 1030 s
- Cn1nc(-c2nnc(-c3ccccc3Cl)o2)c2c1CCN(C(=O)COc1ccc(F)cc1)C2 — higher, 891 s
